{
  "source": "paper PMC5218480",
  "about": "(PLoS ONE, 2017)",
  "system": "MV-4-11 cells",
  "assay": "Gene expression microarray analysis (Affymetrix PrimeView) and GSEA",
  "format": "cell-based, human",
  "design": "RFU PODN (11730768_x_at) / Fold change /veh PODN (11730768_x_at) / RFU LINC00158 (11744669_a_at) / Fold change /veh LINC00158 (11744669_a_at) / RFU DUSP10 (11751237_a_at) / Fold change /veh DUSP10 (11751237_a_at) / RFU ID3 (11757404_x_at) / Fold change /veh ID3 (11757404_x_at) / RFU PLEKHG5 (11737974_s_at) / Fold change /veh PLEKHG5 (11737974_s_at) / RFU LRRC4B (11730491_at) / Fold change /veh LRRC4B (11730491_at) / RFU GIMAP4 (11747438_a_at) / Fold change /veh GIMAP4 (11747438_a_at) / RFU KRT8 (11758183_x_at) / Fold change /veh KRT8 (11758183_x_at) / RFU CNN1 (11734310_a_at) / Fold change /veh CNN1 (11734310_a_at) / RFU VPS37D (11726825_at) / Fold change /veh VPS37D (11726825_at) / RFU C10orf10 (11716522_x_at) / Fold change /veh C10orf10 (11716522_x_at) / RFU KIR2DL2 /// KIR2DL4 /// KIR2DL5A /// KIR2DL5B /// KIR2DS1 /// KIR2DS2 /// KIR2DS3 /// KIR2DS4 /// KIR3DL3 /// KIR3DL3 /// KIR3DS1 (11738374_at) / Fold change /veh KIR2DL2 /// KIR2DL4 /// KIR2DL5A /// KIR2DL5B /// KIR2DS1 /// KIR2DS2 /// KIR2DS3 /// KIR2DS4 /// KIR3DL3 /// KIR3DL3 /// KIR3DS1 (11738374_at) / RFU C1QL1 (11718748_at) / Fold change /veh C1QL1 (11718748_at) / RFU TMPRSS4 (11747572_a_at) / Fold change /veh TMPRSS4 (11747572_a_at) / RFU HAMP (11756126_x_at) / Fold change /veh HAMP (11756126_x_at) / RFU RNFT2 (11725882_a_at) / Fold change /veh RNFT2 (11725882_a_at) / RFU NR4A2 (11747474_a_at) / Fold change /veh NR4A2 (11747474_a_at) / RFU ABCC12 (11746883_a_at) / Fold change /veh ABCC12 (11746883_a_at) / RFU TMEM136 (11760407_x_at) / Fold change /veh TMEM136 (11760407_x_at) / RFU CLDN22 /// WWC2 (11732394_at) / Fold change /veh CLDN22 /// WWC2 (11732394_at) / RFU HLA-DPB1 (11760878_x_at) / Fold change /veh HLA-DPB1 (11760878_x_at) / RFU SPINT1 (11716480_a_at) / Fold change /veh SPINT1 (11716480_a_at) / RFU GAP43 (11754022_s_at) / Fold change /veh GAP43 (11754022_s_at) / RFU A4GNT (11735810_at) / Fold change /veh A4GNT (11735810_at) / RFU PRB3 (11715151_x_at) / Fold change /veh PRB3 (11715151_x_at) / RFU TUBB4B (11761932_at) / Fold change /veh TUBB4B (11761932_at) / RFU CAPN14 (11732068_a_at) / Fold change /veh CAPN14 (11732068_a_at) / RFU TMCC2 (11721928_a_at) / Fold change /veh TMCC2 (11721928_a_at) / RFU IRGQ (11745062_a_at) / Fold change /veh IRGQ (11745062_a_at) / RFU FAM174B (11720279_a_at) / Fold change /veh FAM174B (11720279_a_at) / RFU TMPRSS4 (11748680_a_at) / Fold change /veh TMPRSS4 (11748680_a_at) / RFU FAM212B (11763350_a_at) / Fold change /veh FAM212B (11763350_a_at) / RFU PLEKHG5 (11743358_a_at) / Fold change /veh PLEKHG5 (11743358_a_at) / RFU ZSCAN30 (11745921_a_at) / Fold change /veh ZSCAN30 (11745921_a_at) / RFU CMKLR1 (11741424_a_at) / Fold change /veh CMKLR1 (11741424_a_at) / RFU LOC101060620 /// MAPK8IP1 (11723275_at) / Fold change /veh LOC101060620 /// MAPK8IP1 (11723275_at) / RFU SPTSSB (11747773_x_at) / Fold change /veh SPTSSB (11747773_x_at) / RFU PRSS12 (11739890_at) / Fold change /veh PRSS12 (11739890_at) / RFU BIN1 (11741810_x_at) / Fold change /veh BIN1 (11741810_x_at) / RFU WNT11 (11732464_a_at) / Fold change /veh WNT11 (11732464_a_at) / RFU C10orf10 (11716521_a_at) / Fold change /veh C10orf10 (11716521_a_at) / RFU C5orf56 (11738089_at) / Fold change /veh C5orf56 (11738089_at) / RFU CYB561 (11721691_x_at) / Fold change /veh CYB561 (11721691_x_at) / RFU ANKRD19P (11752326_a_at) / Fold change /veh ANKRD19P (11752326_a_at) / RFU OR2T12 /// OR2T33 /// OR2T8 (11738714_s_at) / Fold change /veh OR2T12 /// OR2T33 /// OR2T8 (11738714_s_at) / RFU VCAN (11748164_a_at) / Fold change /veh VCAN (11748164_a_at) / RFU JSRP1 (11732532_at) / Fold change /veh JSRP1 (11732532_at) / RFU KRTAP10-11 (11738290_x_at) / Fold change /veh KRTAP10-11 (11738290_x_at) / RFU MYO3A (11730013_a_at) / Fold change /veh MYO3A (11730013_a_at) / RFU EBF3 (11725865_a_at) / Fold change /veh EBF3 (11725865_a_at) / RFU CAMK2N1 (11719241_x_at) / Fold change /veh CAMK2N1 (11719241_x_at) / RFU C5orf56 (11738088_a_at) / Fold change /veh C5orf56 (11738088_a_at) / RFU OLFML3 (11715873_a_at) / Fold change /veh OLFML3 (11715873_a_at) / RFU LOC100653217 /// NTM (11731650_a_at) / Fold change /veh LOC100653217 /// NTM (11731650_a_at) / RFU MAPK11 (11762145_a_at) / Fold change /veh MAPK11 (11762145_a_at) / RFU FIZ1 (11724087_x_at) / Fold change /veh FIZ1 (11724087_x_at) / RFU OASL (11726364_x_at) / Fold change /veh OASL (11726364_x_at) / RFU SOX15 (11748057_x_at) / Fold change /veh SOX15 (11748057_x_at) / RFU CD79A (11719716_a_at) / Fold change /veh CD79A (11719716_a_at) / RFU HIST1H1D (11736915_at) / Fold change /veh HIST1H1D (11736915_at) / RFU CASKIN2 (11723855_a_at) / Fold change /veh CASKIN2 (11723855_a_at) / RFU LOC730098 (11760151_x_at) / Fold change /veh LOC730098 (11760151_x_at) / RFU OR4N2 (11742367_at) / Fold change /veh OR4N2 (11742367_at) / RFU PRRT2 (11749266_a_at) / Fold change /veh PRRT2 (11749266_a_at) / RFU SNX32 (11753110_a_at) / Fold change /veh SNX32 (11753110_a_at) / RFU CDHR5 (11726645_a_at) / Fold change /veh CDHR5 (11726645_a_at) / RFU RCAN1 (11760418_a_at) / Fold change /veh RCAN1 (11760418_a_at) / RFU FAM167A (11723789_a_at) / Fold change /veh FAM167A (11723789_a_at) / RFU FAM26E (11764081_at) / Fold change /veh FAM26E (11764081_at) / RFU ISYNA1 (11749810_s_at) / Fold change /veh ISYNA1 (11749810_s_at) / RFU ACY1 (11761880_at) / Fold change /veh ACY1 (11761880_at) / RFU 11764098_at / Fold change /veh 11764098_at / RFU SAMD14 (11745864_x_at) / Fold change /veh SAMD14 (11745864_x_at) / RFU NPB (11741838_a_at) / Fold change /veh NPB (11741838_a_at) / RFU TMPRSS6 (11731388_a_at) / Fold change /veh TMPRSS6 (11731388_a_at) / RFU KRTAP10-2 (11738614_at) / Fold change /veh KRTAP10-2 (11738614_at) / RFU ARHGAP8 /// PRR5-ARHGAP8 (11727945_x_at) / Fold change /veh ARHGAP8 /// PRR5-ARHGAP8 (11727945_x_at) / RFU KRTAP5-7 /// NADSYN1 (11734609_at) / Fold change /veh KRTAP5-7 /// NADSYN1 (11734609_at) / RFU RASL12 (11751679_a_at) / Fold change /veh RASL12 (11751679_a_at) / RFU CDKN2B (11736163_a_at) / Fold change /veh CDKN2B (11736163_a_at) / RFU PRF1 (11729649_at) / Fold change /veh PRF1 (11729649_at) / RFU, ZNF638 /// ZNF638-IT1 / Fold change vs veh, ZNF638 /// ZNF638-IT1 / RFU, PANK3 / Fold change vs veh, PANK3 / RFU, SH3YL1 / Fold change vs veh, SH3YL1 / RFU, ZEB2 / Fold change vs veh, ZEB2 / RFU, NRIP1 / Fold change vs veh, NRIP1 / RFU, PTTG1IP / Fold change vs veh, PTTG1IP / RFU, CAPN2 / Fold change vs veh, CAPN2 / RFU, MED14 / Fold change vs veh, MED14 / RFU, SNORA58 / Fold change vs veh, SNORA58 / RFU, C1orf63 / Fold change vs veh, C1orf63 / RFU, LRRFIP1 / Fold change vs veh, LRRFIP1 / RFU, NDUFAF7 / Fold change vs veh, NDUFAF7 / RFU, SLC12A2 / Fold change vs veh, SLC12A2 / RFU, IBTK / Fold change vs veh, IBTK / RFU, ESF1 / Fold change vs veh, ESF1 / Fold change vs veh, TMEM50B / RFU, TAOK1 / Fold change vs veh, TAOK1 / RFU, ACBD3 / Fold change vs veh, ACBD3 / RFU, TMA16 / Fold change vs veh, TMA16 / RFU, RWDD3 / Fold change vs veh, RWDD3 / RFU, BCAT1 / Fold change vs veh, BCAT1 / RFU, EDEM3 / Fold change vs veh, EDEM3 / RFU, TMEM33 / Fold change vs veh, TMEM33 / RFU, WDR75 / Fold change vs veh, WDR75 / RFU, AHCTF1 / Fold change vs veh, AHCTF1 / RFU, TFRC / Fold change vs veh, TFRC / RFU, ZDHHC17 / Fold change vs veh, ZDHHC17 / RFU, NOM1 / Fold change vs veh, NOM1 / RFU, ARL8B / Fold change vs veh, ARL8B / RFU, ZBTB11 / Fold change vs veh, ZBTB11 / RFU, TAMM41 / Fold change vs veh, TAMM41 / RFU, KIAA1704 /// LOC100996395 / Fold change vs veh, KIAA1704 /// LOC100996395 / RFU, ING1 / Fold change vs veh, ING1 / RFU, TRMT61B / Fold change vs veh, TRMT61B / RFU, FUBP3 / Fold change vs veh, FUBP3 / RFU, TP53 / Fold change vs veh, TP53 / RFU, TNKS2 / Fold change vs veh, TNKS2 / RFU, ZFP14 / Fold change vs veh, ZFP14 / RFU, ACTR2 / Fold change vs veh, ACTR2 / RFU, PPP3R1 / Fold change vs veh, PPP3R1 / RFU, PIK3R1 / Fold change vs veh, PIK3R1 / RFU, HNRNPA1 / Fold change vs veh, HNRNPA1 / RFU, RNF170 / Fold change vs veh, RNF170 / RFU, ZNF28 / Fold change vs veh, ZNF28 / RFU, RNGTT / Fold change vs veh, RNGTT / RFU, OGT / Fold change vs veh, OGT / RFU, BRD1 / Fold change vs veh, BRD1 / RFU, MARS / Fold change vs veh, MARS / RFU, ZNF655 / Fold change vs veh, ZNF655 / RFU, FAHD1 / Fold change vs veh, FAHD1 / RFU, BDP1 / Fold change vs veh, BDP1 / RFU, LRRCC1 / Fold change vs veh, LRRCC1 / RFU, ARID1A / Fold change vs veh, ARID1A / RFU, ZNF146 / Fold change vs veh, ZNF146 / RFU, ZNF330 / Fold change vs veh, ZNF330 / RFU, GPN3 / Fold change vs veh, GPN3 / RFU, C9orf123 / Fold change vs veh, C9orf123 / RFU, N4BP2L2 / Fold change vs veh, N4BP2L2 / RFU, ARFIP1 / Fold change vs veh, ARFIP1 / RFU, FAM179B / Fold change vs veh, FAM179B / RFU, BCL10 / Fold change vs veh, BCL10 / RFU, UHRF1BP1L / Fold change vs veh, UHRF1BP1L / RFU, BET1 / Fold change vs veh, BET1 / RFU, CNOT2 / Fold change vs veh, CNOT2 / RFU, ZNF268 / Fold change vs veh, ZNF268 / Fold change vs veh, ZNF507 / RFU, DGCR2 / Fold change vs veh, DGCR2 / RFU, WDSUB1 / Fold change vs veh, WDSUB1 / Fold change vs veh, HSP90B1 /// MIR3652 / RFU, ADSS / Fold change vs veh, ADSS / RFU, GK / Fold change vs veh, GK / RFU, ZNF148 / Fold change vs veh, ZNF148 / RFU, TAF9 / Fold change vs veh, TAF9 / RFU, SLC1A5 / Fold change vs veh, SLC1A5 / RFU, SLMO2 / Fold change vs veh, SLMO2 / RFU, ABCC4 / Fold change vs veh, ABCC4 / RFU, LOC101060439 /// RAP1B / Fold change vs veh, LOC101060439 /// RAP1B / RFU, RFX7 / Fold change vs veh, RFX7 / RFU, GTPBP10 / Fold change vs veh, GTPBP10 / RFU, CNEP1R1 / Fold change vs veh, CNEP1R1 / RFU, BIVM-ERCC5 /// ERCC5 / Fold change vs veh, BIVM-ERCC5 /// ERCC5 / RFU, ILF3 / Fold change vs veh, ILF3 / RFU 11762660_at / Fold change /veh 11762660_at / RFU VCAN (11757783_s_at) / Fold change /veh VCAN (11757783_s_at) / RFU DDX43 (11728927_at) / Fold change /veh DDX43 (11728927_at) / RFU KRT8 (11758188_x_at) / Fold change /veh KRT8 (11758188_x_at) / RFU NKD1 (11759106_at) / Fold change /veh NKD1 (11759106_at) / RFU SRD5A1 (11742802_a_at) / Fold change /veh SRD5A1 (11742802_a_at) / RFU TPSAB1 /// TPSB2 (11721975_s_at) / Fold change /veh TPSAB1 /// TPSB2 (11721975_s_at) / RFU GSTM3 (11746129_a_at) / Fold change /veh GSTM3 (11746129_a_at) / RFU IL23R (11737362_x_at) / Fold change /veh IL23R (11737362_x_at) / RFU TMEM51 (11727254_a_at) / Fold change /veh TMEM51 (11727254_a_at) / RFU PIWIL2 (11732686_x_at) / Fold change /veh PIWIL2 (11732686_x_at) / RFU ORM1 (11744905_x_at) / Fold change /veh ORM1 (11744905_x_at) / RFU CCDC152 (11743942_at) / Fold change /veh CCDC152 (11743942_at) / RFU ECM1 (11717891_a_at) / Fold change /veh ECM1 (11717891_a_at) / RFU IL23R (11748794_a_at) / Fold change /veh IL23R (11748794_a_at) / RFU TNFAIP8L3 (11732012_x_at) / Fold change /veh TNFAIP8L3 (11732012_x_at) / RFU MBOAT4 (11741988_at) / Fold change /veh MBOAT4 (11741988_at) / RFU 11764193_at / Fold change /veh 11764193_at / RFU TMEM53 (11763286_at) / Fold change /veh TMEM53 (11763286_at) / RFU MAGEB2 (11727129_at) / Fold change /veh MAGEB2 (11727129_at) / RFU TMEM200A (11744735_a_at) / Fold change /veh TMEM200A (11744735_a_at) / RFU CCDC152 (11751479_a_at) / Fold change /veh CCDC152 (11751479_a_at) / RFU FAM211A (11726209_a_at) / Fold change /veh FAM211A (11726209_a_at) / RFU RGS16 (11746705_a_at) / Fold change /veh RGS16 (11746705_a_at) / RFU VCAN (11755009_s_at) / Fold change /veh VCAN (11755009_s_at) / RFU RHOB (11743442_s_at) / Fold change /veh RHOB (11743442_s_at) / RFU RGS16 (11720943_a_at) / Fold change /veh RGS16 (11720943_a_at) / RFU RGS16 (11720944_at) / Fold change /veh RGS16 (11720944_at) / RFU, VPS4B / Fold change vs veh, VPS4B / RFU, CREB1 / Fold change vs veh, CREB1 / RFU, DNAJC13 / Fold change vs veh, DNAJC13 / RFU, GNAQ / Fold change vs veh, GNAQ / RFU, CDK5R1 / Fold change vs veh, CDK5R1 / RFU, ZRANB3 / Fold change vs veh, ZRANB3 / RFU, CUL4A / Fold change vs veh, CUL4A / RFU, CCNY / Fold change vs veh, CCNY / RFU, UFL1 / Fold change vs veh, UFL1 / RFU, COG3 / Fold change vs veh, COG3 / RFU, DIAPH2 / Fold change vs veh, DIAPH2 / RFU, SKA2 / Fold change vs veh, SKA2 / RFU, AFF3 / Fold change vs veh, AFF3 / RFU, LMF1 / Fold change vs veh, LMF1 / RFU, IPO11 / Fold change vs veh, IPO11 / RFU, DFFB / Fold change vs veh, DFFB / RFU, FOXP1 / Fold change vs veh, FOXP1 / RFU, CARD8 / Fold change vs veh, CARD8 / RFU, STRN3 / Fold change vs veh, STRN3 / RFU, ADK / Fold change vs veh, ADK / RFU, RASSF2 / Fold change vs veh, RASSF2 / RFU, WIPF1 / Fold change vs veh, WIPF1 / RFU, LARP1B / Fold change vs veh, LARP1B / RFU, RASA1 / Fold change vs veh, RASA1 / RFU, RB1 / Fold change vs veh, RB1 / RFU, PPFIA1 / Fold change vs veh, PPFIA1 / RFU, MAT2A / Fold change vs veh, MAT2A / RFU, CCT5 / Fold change vs veh, CCT5 / RFU, WDR92 / Fold change vs veh, WDR92 / RFU, CUX1 / Fold change vs veh, CUX1 / RFU, TTC7A / Fold change vs veh, TTC7A / RFU, TMEM135 / Fold change vs veh, TMEM135 / RFU, DEPTOR / Fold change vs veh, DEPTOR / RFU, CPM / Fold change vs veh, CPM / RFU, DNAJB6 / Fold change vs veh, DNAJB6 / RFU, CACNA2D3 / Fold change vs veh, CACNA2D3 / RFU, DTX4 / Fold change vs veh, DTX4 / RFU, TFCP2 / Fold change vs veh, TFCP2 / RFU, GMCL1 /// GMCL1P1 / Fold change vs veh, GMCL1 /// GMCL1P1 / RFU, AEBP2 / Fold change vs veh, AEBP2 / RFU, SNHG1 /// SNORD22 /// SNORD25 /// SNORD26 /// SNORD27 /// SNORD28 /// SNORD29 /// SNORD31 / Fold change vs veh, SNHG1 /// SNORD22 /// SNORD25 /// SNORD26 /// SNORD27 /// SNORD28 /// SNORD29 /// SNORD31 / Fold change (Aza/veh), C12orf56 (ProbeSet 11735607_a_at) / Fold change (ACY-1035/veh), C12orf56 (ProbeSet 11735607_a_at) / Fold change (Aza/veh), FGFR1OP (ProbeSet 11751329_s_at) / Fold change (ACY-1035/veh), FGFR1OP (ProbeSet 11751329_s_at) / Fold change (Aza/veh), VPS36 (ProbeSet 11739960_a_at) / Fold change (ACY-1035/veh), VPS36 (ProbeSet 11739960_a_at) / RFU SYPL1 (11715823_x_at) / Fold change /veh SYPL1 (11715823_x_at) / RFU IGFBP7 (11715501_s_at) / Fold change /veh IGFBP7 (11715501_s_at) / RFU REEP3 (11722064_at) / Fold change /veh REEP3 (11722064_at) / RFU IGLL1 (11728026_x_at) / Fold change /veh IGLL1 (11728026_x_at): dose or concentration left out as unconfirmed",
  "details": "MV-4-11 cells, 48 hours",
  "data": [
    {"compound": "Nc1ccc(-c2cccs2)cc1NC(=O)c1ccc2c(c1)cc(C1CC1)n2CCN1CCOCC1", "note": "[ACY-1035]", "values": [
      {"measurement": "RFU RASL12 (11751679_a_at)", "value": 18.80, "unit": "RFU"}
    ]}
  ]
}
